Here are results for two molecules from article PMC11188740, “A small molecule that inhibits the evolution of antibiotic resistance” (NAR Molecular Medicine, 2024).

Test [1] deals with T1, Mfd (Escherichia coli, UniProt P30958).
T1 construct: purified His-tagged E. coli Mfd (expressed from pCA24N-Mfd)
Briefly: NADH-coupled ATPase assay, Michaelis–Menten Km without ARM-1. In kind it is biochemical. From the text:
NADH-coupled ATPase assay, Michaelis–Menten Km without ARM-1 on Mfd | Kinetic constants of Mfd ATPase activity determined using Michaelis–Menten modeling

In test [2] the target is T1, Mfd. In words: microscale thermophoresis (His-tag labeled Mfd); also RNAP displacement assay with purified Mfd. In kind it is binding.

Each structure is given as a SMILES string.

T1 sequence (P30958 whole entry): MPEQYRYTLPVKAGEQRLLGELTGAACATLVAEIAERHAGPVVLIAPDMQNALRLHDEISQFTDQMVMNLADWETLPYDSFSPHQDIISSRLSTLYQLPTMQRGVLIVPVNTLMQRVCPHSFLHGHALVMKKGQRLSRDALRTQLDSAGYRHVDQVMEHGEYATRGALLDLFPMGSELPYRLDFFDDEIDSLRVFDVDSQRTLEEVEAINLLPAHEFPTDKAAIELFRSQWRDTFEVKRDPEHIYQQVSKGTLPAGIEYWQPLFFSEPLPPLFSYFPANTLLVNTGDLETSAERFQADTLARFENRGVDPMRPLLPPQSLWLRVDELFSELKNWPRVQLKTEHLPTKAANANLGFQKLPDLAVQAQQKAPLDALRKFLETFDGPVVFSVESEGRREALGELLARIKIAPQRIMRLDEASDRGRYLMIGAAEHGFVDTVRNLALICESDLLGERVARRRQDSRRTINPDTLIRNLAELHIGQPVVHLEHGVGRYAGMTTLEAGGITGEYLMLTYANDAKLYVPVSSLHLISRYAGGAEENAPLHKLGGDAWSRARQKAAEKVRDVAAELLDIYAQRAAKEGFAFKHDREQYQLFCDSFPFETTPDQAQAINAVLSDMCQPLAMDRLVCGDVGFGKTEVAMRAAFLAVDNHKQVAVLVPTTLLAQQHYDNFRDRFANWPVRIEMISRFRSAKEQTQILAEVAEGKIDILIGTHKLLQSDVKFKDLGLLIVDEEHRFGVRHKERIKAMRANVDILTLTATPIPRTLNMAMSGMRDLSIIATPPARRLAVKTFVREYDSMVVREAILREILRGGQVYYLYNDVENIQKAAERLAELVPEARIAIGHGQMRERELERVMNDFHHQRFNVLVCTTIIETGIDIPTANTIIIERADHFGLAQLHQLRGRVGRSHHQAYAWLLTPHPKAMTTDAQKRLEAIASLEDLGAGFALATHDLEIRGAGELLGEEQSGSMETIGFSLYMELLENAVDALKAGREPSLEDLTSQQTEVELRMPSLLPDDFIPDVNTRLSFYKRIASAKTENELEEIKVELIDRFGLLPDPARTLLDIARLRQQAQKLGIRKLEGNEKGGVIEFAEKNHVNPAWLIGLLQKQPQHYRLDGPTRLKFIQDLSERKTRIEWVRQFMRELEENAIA

As to `Nc1ncnc2c1ncn2[C@@H]1O[C@H](COP(=O)(O)OP(=O)(O)OP(=O)(O)O)[C@@H](O)[C@H]1O` [ATP], the “K m / Mean” value at Mfd [1] was 0.954.

Molecule `Cc1cc(Br)ccc1-c1ccc(CNCCCN(C)C)o1` [ARM-1] returned a Kd at Mfd [2] of 4.25 µM.
